Source: patent US20250281462A1, “THERAPEUTICALLY EFFECTIVE ORAL ADMINISTRATION OF A 2 ARYLBENZIMIDAZOLE” (Tranquis Therapeutics, Inc., priority 2021, published 2025)

Test: Plasma concentrations after single intravenous dose in rats
Format: in vivo
Details: male, Sprague Dawley, rat, 0.5 mg/kg intravenous
Experimental: A total of 3 male, 7-9 week old, Sprague Dawley rats from Vital River were administered a single intravenous dose of TQS-168 at 0.5 mg/kg, in a volume of 0.5 mL/kg. TQS-168 was prepared in solution of 31.6% DMAC+36.8% ethanol+31.6% propylene glycol.
Blood samples were collected at 0.5, 3, 10, 30, 60, 120, 240, 480 and 720 minutes after a single dose of TQS-168 and then processed. Blood samples were collected via saphenous vein puncture into a K2EDTA tube, centrifuged at 4° C. at 4600 rpm for 5 minutes, and plasma collected and stored at less than −20° C. prior to being analyzed by LC-MS for TQS-168 concentrations. Data are presented as concentrations of TQS-168 (ng/mL) in plasma and graphed in FIG. 15 (individual rats) and 16 (average).

Question: For `CC(C)(C)c1ccc(-c2nc3ccccc3[nH]2)cc1` [TQS-168, 2-(4-tert-butylphenyl)-1H-benzimidazole], which half-life is on record?
Answer: 9.72 min

Question: What about the clearance (read-out: clearance rate (converted)) of the same molecule?
Answer: 155 mL/min/kg
